19 compounds from US10287305B2, “Substituted piperidine compound and use thereof” (Takeda Pharmaceutical Company Limited, priority 2016, dated 2019) can be followed below.

The experiment addresses human orexin type 2 receptor (hOX2R) (Homo sapiens (Human), UniProt O43614). The experiment in a line: Measurement of orexin type 2 receptor agonist activity (Experimental Example 2-1, FLIPR TETRA, intracellular Ca2+). The experiment is classed as cell-based. The settings on record: CHO dhfr- cells expressing hOX2R; for Emax at 30 µM: value at 30 uM concentration, orexin B as full agonist = 100%; for Emax: read-out: Emax (%).

[1] abbreviates: agonist activity, 10 nM human orexin B = 100%.

human orexin type 2 receptor (hOX2R), sequence (O43614 whole entry): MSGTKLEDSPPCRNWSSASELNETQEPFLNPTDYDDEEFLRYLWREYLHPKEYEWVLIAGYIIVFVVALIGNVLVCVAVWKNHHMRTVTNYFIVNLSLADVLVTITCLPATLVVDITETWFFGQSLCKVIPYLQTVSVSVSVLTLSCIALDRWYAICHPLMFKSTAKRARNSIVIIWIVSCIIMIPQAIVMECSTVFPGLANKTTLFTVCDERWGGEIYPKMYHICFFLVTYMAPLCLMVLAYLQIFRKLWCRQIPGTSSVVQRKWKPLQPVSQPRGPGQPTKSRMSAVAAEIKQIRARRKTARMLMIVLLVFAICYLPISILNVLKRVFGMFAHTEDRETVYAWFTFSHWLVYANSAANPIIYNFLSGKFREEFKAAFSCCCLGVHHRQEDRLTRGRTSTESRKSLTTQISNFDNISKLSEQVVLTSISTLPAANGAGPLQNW

In turn, `CC(=O)N1CCC[C@H](NS(C)(=O)=O)[C@@H]1CO[C@H]1CC[C@@H](c2ccccc2C(F)(F)F)CC1` [Example 24, N-((2R,3S)-1-acetyl-2-(((cis-4-(2-(trifluoromethyl)phenyl)cyclohexyl)oxy)methyl)piperidin-3-yl)methanesulfonamide] yielded an Emax at 30 µM of 102%. Also, the EC50 under setting [1] amounted to 21 nM.

Regarding `COC(=O)N1CCC[C@H](NS(C)(=O)=O)[C@@H]1CO[C@H]1CC[C@@H](c2ccccc2C(F)F)CC1` [Example 324, methyl (2R,3S)-2-(((cis-4-(2-(difluoromethyl)phenyl)cyclohexyl)-oxy)methyl)-3-((methylsulfonyl)amino)piperidine-1-carboxylate], the “Emax (%)” value (FLIPR TETRA, Fluo-4AM) is recorded as 95%.

Regarding `CC(=O)N1CCC[C@H](NS(C)(=O)=O)[C@@H]1COC1CCC(F)(c2cccc(F)c2)CC1` (relative stereo) [Example 216, N-(cis-1-acetyl-2-(((4-fluoro-4-(3-fluorophenyl)cyclohexyl)oxy)methyl)piperidin-3-yl)methanesulfonamide], for the setting “FLIPR TETRA, Fluo-4AM”, the EC50 was 210 nM and the Emax is 105%.

As to `CS(=O)(=O)N[C@H]1CCCN(C(=O)C(F)F)[C@H]1CO[C@H]1CC[C@@H](c2ccccc2)CC1` (relative stereo) [Example 139, N-(cis-1-(difluoroacetyl)-2-(((cis-4-phenylcyclohexyl)oxy)methyl)piperidin-3-yl)methanesulfonamide], for the setting “FLIPR TETRA, Fluo-4AM”, the Emax was found to be 103%.

`CC(OC(=O)N1CCC[C@H](NS(C)(=O)=O)[C@@H]1COC1CCN(c2ncccn2)CC1)C(F)(F)F` (relative stereo) [Example 313, 1,1,1-trifluoropropan-2-yl cis-3-((methylsulfonyl)amino)-2-(((1-(pyrimidin-2-yl)piperidin-4-yl)oxy)methyl)piperidine-1-carboxylate]: under “FLIPR TETRA, Fluo-4AM”, the EC50 came out at 270 nM and the Emax stood at 95%.

`CC(C)[C@H]1CC[C@@H](OC[C@H]2[C@@H](NS(C)(=O)=O)CCCN2C(=O)N(C)C)CC1` (relative stereo) [Example 40, cis-2-(((cis-4-isopropylcyclohexyl)oxy)methyl)-N,N-dimethyl-3-((methylsulfonyl)amino)piperidine-1-carboxamide] displayed an Emax at 30 µM of 91%. The same compound displayed an EC50 under setting [1] of 720 nM.

Turning to `CCNC(=O)N1CCC[C@H](NS(C)(=O)=O)[C@@H]1COC1CCN(c2ncccn2)CC1` (relative stereo) [Example 118, cis-N-ethyl-3-((methylsulfonyl)amino)-2-(((1-(pyrimidin-2-yl)piperidin-4-yl)oxy)methyl)piperidine-1-carboxamide], the Emax at 30 µM was found to be 105%. Also, the EC50 under setting [1] worked out at 4.6 nM.

For the compound `CS(=O)(=O)N[C@H]1CCCN(C(=O)C2CCCCC2)[C@H]1COC1CCN(c2ccccc2F)CC1` (relative stereo) [Example 236, N-(cis-1-(cyclohexylcarbonyl)-2-(((1-(2-fluorophenyl)piperidin-4-yl)oxy)methyl)piperidin-3-yl)methanesulfonamide], where the note is “FLIPR TETRA, Fluo-4AM”, the EC50 was 1800 nM and the Emax worked out at 86%.

With `CC(C)OC(=O)N1CCC[C@H](NS(=O)(=O)N(C)C)[C@@H]1COC1CCN(c2ncccn2)CC1` [Example 29, isopropyl (2R,3S)-3-((dimethylsulfamoyl)amino)-2-(((1-(pyrimidin-2-yl)piperidin-4-yl)oxy)methyl)piperidine-1-carboxylate], the Emax at 30 µM is 104%. The EC50 under setting [1] was 17 nM.

On to `CS(=O)(=O)N[C@H]1CCCN(C(=O)OCC(F)(F)F)[C@H]1CO[C@H]1CC[C@@H](c2cccc(F)c2)CC1` [Example 276, 2,2,2-trifluoroethyl (2R,3S)-2-(((cis-4-(3-fluorophenyl)cyclohexyl)oxy)methyl)-3-((methylsulfonyl)amino)piperidine-1-carboxylate], for which the Emax (FLIPR TETRA, Fluo-4AM) worked out at 95%.

In the case of `[2H]C([2H])([2H])OC(=O)N1CCC[C@H](NS(C)(=O)=O)[C@@H]1CO[C@H]1CC[C@@H](c2ccccc2)CC1` [Example 191, methyl-d3 (2R,3S)-3-((methylsulfonyl)amino)-2-(((cis-4-phenylcyclohexyl)oxy)methyl)piperidine-1-carboxylate], under “FLIPR TETRA, Fluo-4AM”, a half-maximal response (EC50) required 2.9 nM and the maximum response (Emax) came out at 107%.

Compound `CCNS(=O)(=O)N[C@H]1CCCN(C(C)=O)[C@H]1CO[C@H]1CC[C@@H](C(C)C)CC1` (relative stereo) [Example 79, N-(cis-1-acetyl-2-(((cis-4-isopropylcyclohexyl)oxy)methyl)piperidin-3-yl)-N′-ethylsulfuric diamide] yielded an Emax at 30 µM of 85%. Under setting [1], this compound had an EC50 of 330 nM.

For `CCOC(=O)N1CCC[C@H](NS(C)(=O)=O)[C@@H]1COC1CCN(c2ccccc2F)CC1` (relative stereo) [Example 228, ethyl cis-2-(((1-(2-fluorophenyl)piperidin-4-yl)oxy)methyl)-3-((methylsulfonyl)amino)piperidine-1-carboxylate], where the note is “FLIPR TETRA, Fluo-4AM”, the 50% effective concentration (EC50) came out at 2100 nM and the Emax was 89%.

For `CS(=O)(=O)N[C@H]1CCCN(C(=O)CO)[C@H]1CO[C@H]1CC[C@@H](c2ccccc2)CC1` [Example 185, N-((2R,3S)-1-glycoloyl-2-(((cis-4-phenylcyclohexyl)oxy)methyl)piperidin-3-yl)methanesulfonamide], where the note is “FLIPR TETRA, Fluo-4AM”, the EC50 worked out at 21 nM and the Emax amounted to 98%.

`CCNC(=O)N1CCC[C@H](NS(C)(=O)=O)[C@@H]1CO[C@H]1C[C@@H](Cc2ccccc2)C1` (relative stereo) [Example 266, cis-2-(((cis-3-benzylcyclobutyl)oxy)methyl)-N-ethyl-3-((methylsulfonyl)amino)piperidine-1-carboxamide]: where the note is “FLIPR TETRA, Fluo-4AM”, the midpoint of the response, the EC50, lay at 3700 nM and the Emax stood at 95%.

For the compound `CCNC(=O)N1CCC[C@H](NS(C)(=O)=O)[C@@H]1CO[C@H]1CO[C@@H](c2ccccc2)OC1` (relative stereo) [Example 140, cis-N-ethyl-3-((methylsulfonyl)amino)-2-(((cis-2-phenyl-1,3-dioxan-5-yl)oxy)methyl)piperidine-1-carboxamide], for the setting “FLIPR TETRA, Fluo-4AM”, the EC50 turned out to be 390 nM and the Emax is 92%.

With `CS(=O)(=O)N[C@H]1CCCN(S(C)(=O)=O)[C@H]1CO[C@H]1CC[C@@H](c2ccccc2)CC1` (relative stereo) [Example 152, N-(cis-1-(methylsulfonyl)-2-(((cis-4-phenylcyclohexyl)oxy)methyl)piperidin-3-yl)methanesulfonamide], the Emax (FLIPR TETRA, Fluo-4AM) amounted to 96%.

For `CC(C)CC(=O)N1CCC[C@H](NS(C)(=O)=O)[C@@H]1COC1CCN(c2ccccc2F)CC1` (relative stereo) [Example 230, N-(cis-2-(((1-(2-fluorophenyl)piperidin-4-yl)oxy)methyl)-1-(3-methylbutanoyl)piperidin-3-yl)methanesulfonamide], where the note is “FLIPR TETRA, Fluo-4AM”, the 50% effective concentration (EC50) worked out at 2600 nM and the Emax was determined as 80%.

The compound `CS(=O)(=O)N[C@H]1CCCN[C@H]1CO[C@H]1CC[C@@H](c2ccccc2F)CC1` (relative stereo) [Example 115, N-(cis-2-(((cis-4-(2-fluorophenyl)cyclohexyl)oxy)methyl)piperidin-3-yl)methanesulfonamide] gave an Emax at 30 µM of 97%. The same compound had an EC50 under setting [1] of 770 nM.

As a reminder, the EC50 is the concentration giving half of the maximal effect. A word on the Emax: it is the greatest response seen or fitted, relative to the assay's reference.
